{"source": "patent US9957566B2", "about": "“Screening method” (THE UNIVERSITY OF BIRMINGHAM, priority 2009, dated 2018)", "key": {"peripheral lymphocytes [1]": {"test_system": "peripheral lymphocytes", "experiment": "Lymphocyte culture with or without rapamycin, flow cytometry cell cycle analysis (TG1)", "type": "cell-based, human", "details": "100 ng/ml rapamycin, 24 hours", "experimental": "(§1) Peripheral lymphocytes (thawed from storage as appropriate) were cultured in a growth medium of RPMI 1640 supplemented with 15% FCS (heat inactivated), plus 2% I-glutamine and 1% penicillin/streptamycin, in the presence of 2.5% phytohaemagglutinin (PHA) for 48 hours at 37° C., 5% CO2, to reach exponential growth. Cultures were prepared in a 96 well plate format, with 6 or 8 wells allocated to each patient (test subject). One single plate could therefore hold eleven sets of patient samples, plus one set of standard samples.\n(§2) Once exponential growth of the cells was achieved, the lymphocyte cultures were treated with either growth medium (as above) alone, or the same growth medium plus 100 ng/ml rapamycin, in triplicate/quadruplicate for each patient.\n(§3) Cell cultures were harvested after 24 hours. Samples intended for cytotoxicity testing (LDH assay) were frozen at −20° C., whereas samples intended for analysis by flow cytometry were fixed in 85% cold ethanol.\n96-well plate lymphocytes cultures (with or without rapamycin) fixed in ethanol (end of step 3) were spun at 400 g for 10 minutes at RT with no breaks. Supernatants were removed and the cell pellets resuspended in 0.300 ml ice-cold PBS/well. The plates were spun again at 400 g for 10 minutes at RT with no breaks. Supernatants were again removed and the cell pellets re-suspended in 0.080 ml of propidium iodide (P1) staining solution/well.\nThe flow cytometer (FacsCalibur BD) was set up to distinguish well between the G1 and G2 peaks (at least 200 units apart).\nUsing as a Marker measure the PI reading equivalent to the G1 peak and the G2 peak the parameter X was calculated based on the relation: X=(G2peak−G1peak)/4\n(§4) The LDH cytotoxicity assay gave a value for total cell numbers in each lymphocyte culture (with or without rapamycin). […]\n[formula] fG1 is the proportion of cells in the G1 phase of the cell cycle as measured by flow cytometry.\nFinally, TG1 values calculated for rapamycin treated and untreated lymphocyte cultures from the same test subject were compared."}, "peripheral lymphocytes [2]": {"test_system": "peripheral lymphocytes", "experiment": "Lymphocyte culture with or without rapamycin, LDH cytotoxicity assay for number of cell divisions", "type": "cell-based, human", "details": "100 ng/ml rapamycin, 24 hours", "experimental": "as §1, §2, §3\nMeasurement of cell numbers in the cell cultures prepared in 3) was carried out by LDH cytotoxicity assay using the CytoTox 96® Non-Radioactive Cytotoxicity Assay Kit from Promega, according to the instructions supplied by the manufacturer.\nThe assays were set up in 96-well plate format, using 30 μl of lymphocyte culture and 50 μl of LDH substrate mix per well (substrate mix is a component of the CytoTox kit, diluted prior to use). Patient samples cultured with or without rapamycin were each tested in triplicate. The assay plates also included diluted standards of LDH positive control (serial dilutions of LDH positive control in lymphocyte culture medium; triplicate samples of 30 μl at each of 1:2500, 1:5000, 1:10,000, 1:20,000, 1:40,000, 1:80,000 and 1:160,000 dilution), to allow construction of a calibration curve.\nThe reactions were then stopped by adding 50 μl of cold Stop Solution (component of the CytoTox kit) to each well. Optical density was then read at 490 nm.\nas §4"}, "[3]": {"details": "subjects with 0 ApoE4 alleles (n=54)"}, "[4]": {"details": "subjects with 1 ApoE4 allele (n=38)"}, "[5]": {"details": "subjects with 2 ApoE4 alleles (n=8)"}}, "data": [{"smiles": "CO[C@H]1C[C@@H]2CC[C@@H](C)[C@@](O)(O2)C(=O)C(=O)N2CCCC[C@H]2C(=O)O[C@H]([C@H](C)C[C@@H]2CC[C@@H](O)[C@H](OC)C2)CC(=O)[C@H](C)/C=C(\\C)[C@@H](O)[C@@H](OC)C(=O)[C@H](C)C[C@H](C)/C=C/C=C/C=C/1C", "note": "[Rapamycin, rapamycin]", "values": [{"measurement": "TG1 Rapa = length of the G1 time under the effect of Rapamycin (mean)", "setting": "peripheral lymphocytes [1]; [3]", "result": 13.9944}, {"measurement": "TG1 Rapa = length of the G1 time under the effect of Rapamycin (mean)", "setting": "peripheral lymphocytes [1]; [4]", "result": 13.7038}, {"measurement": "TG1 Rapa = length of the G1 time under the effect of Rapamycin (mean)", "setting": "peripheral lymphocytes [1]; [5]", "result": 13.1059}, {"measurement": "n rapa/n = change in the number of cell divisions under the effect of Rapamycin relative to control cultures from the same individual (mean)", "setting": "peripheral lymphocytes [2]; [3]", "result": 1.3044}, {"measurement": "n rapa/n = change in the number of cell divisions under the effect of Rapamycin relative to control cultures from the same individual (mean)", "setting": "peripheral lymphocytes [2]; [4]", "result": 1.3775}, {"measurement": "n rapa/n = change in the number of cell divisions under the effect of Rapamycin relative to control cultures from the same individual (mean)", "setting": "peripheral lymphocytes [2]; [5]", "result": 1.4624}]}]}
